Assay results published in the NIST ThermoML archive (doi:10.1021/je060271a).

Conditions: 283.15 K, Liquid, Vibrating tube method

CCCCCCCC(=O)OCC(COC(=O)CCCCCCC)(COC(=O)CCCCCCC)COC(=O)CCCCCCC [pentaerythritol tetraoctanoate]
Conditions | mass density [kg/m3]
21118 kPa | 982
21140 kPa | 981.8
21159 kPa | 982
21181 kPa | 982
21200 kPa | 981.9
21219 kPa | 981.9
21238 kPa | 982
21258 kPa | 981.8
21280 kPa | 981.9
21299 kPa | 982
21318 kPa | 982
21341 kPa | 982.1
21360 kPa | 982
21379 kPa | 982.1
21402 kPa | 982.1
21421 kPa | 982.1
21440 kPa | 982
21460 kPa | 982
21483 kPa | 982
21502 kPa | 982.1
21525 kPa | 982.1
21545 kPa | 982.1
21564 kPa | 982.1
21584 kPa | 982.1
21607 kPa | 982.2
21626 kPa | 982
21647 kPa | 982.2
21670 kPa | 982.1
21690 kPa | 982.2
21710 kPa | 982.1
21730 kPa | 982
21755 kPa | 982.2
21775 kPa | 982.2
21795 kPa | 982.3
21815 kPa | 982.3
21839 kPa | 982.3
21859 kPa | 982.2
21879 kPa | 982.2
21898 kPa | 982.2
21922 kPa | 982.3
21943 kPa | 982.2
21963 kPa | 982.3
21987 kPa | 982.4
22008 kPa | 982.4
22033 kPa | 982.3
22054 kPa | 982.4
22074 kPa | 982.4
22094 kPa | 982.3
22115 kPa | 982.4
22140 kPa | 982.4
22160 kPa | 982.5
22185 kPa | 982.5
22205 kPa | 982.4
22226 kPa | 982.4
22251 kPa | 982.5
22271 kPa | 982.4
22292 kPa | 982.4
22318 kPa | 982.5
22339 kPa | 982.5
22360 kPa | 982.5
22382 kPa | 982.4
22407 kPa | 982.7
22428 kPa | 982.6
22453 kPa | 982.7
22474 kPa | 982.6
22496 kPa | 982.5
22517 kPa | 982.5
22543 kPa | 982.6
22564 kPa | 982.6
22586 kPa | 982.4
22612 kPa | 982.6
22634 kPa | 982.6
22655 kPa | 982.6
22681 kPa | 982.8
22703 kPa | 982.7
22725 kPa | 982.7
22822 kPa | 982.8
22844 kPa | 982.8
22866 kPa | 982.8
22889 kPa | 982.8
22916 kPa | 982.7
22938 kPa | 982.9
22961 kPa | 982.8
22987 kPa | 982.8
23010 kPa | 982.8
23032 kPa | 982.9
23059 kPa | 982.8
23082 kPa | 982.9
23104 kPa | 982.8
23132 kPa | 983
23154 kPa | 982.9
23177 kPa | 982.9
23204 kPa | 982.9
23227 kPa | 982.9
23250 kPa | 983
23278 kPa | 983
23301 kPa | 982.9
23324 kPa | 983
23348 kPa | 982.9
23375 kPa | 983.1
23398 kPa | 983.1
23422 kPa | 983.1
23450 kPa | 983
23473 kPa | 983
23497 kPa | 983.1
23525 kPa | 983.2
23549 kPa | 983.1
23573 kPa | 983.2
23597 kPa | 983.1
23625 kPa | 983.2
23649 kPa | 983.1
23672 kPa | 983.2
23701 kPa | 983.3
23725 kPa | 983.2
23753 kPa | 983.2
23777 kPa | 983.1
23801 kPa | 983.2
23831 kPa | 983.2
23857 kPa | 983.3
23881 kPa | 983.3
23905 kPa | 983.4
23934 kPa | 983.2
23959 kPa | 983.3
23983 kPa | 983.4
24008 kPa | 983.3
24038 kPa | 983.2
24062 kPa | 983.4
24087 kPa | 983.3
24117 kPa | 983.4
24142 kPa | 983.3
24168 kPa | 983.5
24194 kPa | 983.5
24219 kPa | 983.5
24248 kPa | 983.5
24273 kPa | 983.5
24304 kPa | 983.4
24329 kPa | 983.6
24354 kPa | 983.5
24385 kPa | 983.5
24410 kPa | 983.5
24436 kPa | 983.5
24466 kPa | 983.6
24492 kPa | 983.7
24518 kPa | 983.6
24544 kPa | 983.7
24576 kPa | 983.6
24601 kPa | 983.7
24632 kPa | 983.6
